target: T1, GPR119 receptor (Mesocricetus auratus, UniProt A0A1U8CD06); assay: cAMP assay in HIT-T15 hamster pancreatic islet cells (functional agonist activity); format: cell-based; settings: HIT-T15 cells endogenously expressing GPR119; 30 min at 25° C.; intracellular cAMP
T1 construct: which endogenously express the GPR119 receptor; host or cells: HIT-T15 hamster pancreatic islet cells
T1 sequence (A0A1U8CD06 1-334): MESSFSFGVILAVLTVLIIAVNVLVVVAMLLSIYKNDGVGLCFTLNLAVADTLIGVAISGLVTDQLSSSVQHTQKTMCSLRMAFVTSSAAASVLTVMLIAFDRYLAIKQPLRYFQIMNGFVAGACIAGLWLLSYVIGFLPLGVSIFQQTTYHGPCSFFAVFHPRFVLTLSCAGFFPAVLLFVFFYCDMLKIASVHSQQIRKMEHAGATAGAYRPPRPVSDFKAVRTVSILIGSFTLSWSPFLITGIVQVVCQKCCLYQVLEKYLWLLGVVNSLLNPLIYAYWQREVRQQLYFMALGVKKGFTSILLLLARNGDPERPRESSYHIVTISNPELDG
Experimental: The functional agonist activities of compounds of the invention were characterized using a cAMP assay in HIT-T15 hamster pancreatic islet cells (American Type Culture Collection, Manassas, Va., USA) which endogenously express the GPR119 receptor. The cells were cultured in Kaighn's modification of Ham's F12 medium (Invitrogen Corporation, Carlsbad, Calif., USA) containing 10% horse serum, 2.5% FBS, and 1% Pen/Strep and grown in 225 cm^2 tissue culture flasks until they reached 75-85% confluence.
The cells were harvested 24 h prior to assay with 5 ml Versene®, washed with Kaighn/F12 medium and then plated into white 384-well plates (9000 cells/well) containing Kaighn/F12 medium. Prior to assay, the culture medium was replaced with a Kaighn/F12 medium without phenol red (50 μL/well) containing 0.5 mM 3-isobutyl-1-methylxanthine, 0.5 mg/ml BSA. The cells were incubated in the dark for 30 min at 25° C. in the absence or presence of varying concentrations of agonist (1 μL, 100% DMSO). The incubation media was discarded and replaced with the assay lysis buffer (50 μL/well) provided in the Tropix cAMP-Screen® kit (Applied Biosystems, Foster City, Calif., USA) and the plates incubated for 45 min at 37° C. The intracellular levels of cAMP generated in the HIT-T 15 cells were measured using the Tropix kit. In brief, 20 μL of the lysate was transferred into pre-coated antibody plates (384-well; Tropix kit) along with 10 μL of alkaline phosphatase conjugate and 20 μL of anti-cAMP antibody and the plates were incubated for 1 h at room temperature while shaking. The plates were then washed 5 times with wash buffer (70 μL) and tapped dry. CSPD®/Sapphire-II™ RTU substrate/enhancer solution (Applied Biosystems, Foster City, Calif., USA; 30 μL) was added and the plates were incubated for 45 min at room temperature while shaking. The signal generated was measured using a Wallac Victor V Luminometer (PerkinElmer Life And Analytical Sciences, Inc., Waltham, Mass., USA; 1 sec/well). EC50 values were calculated using the XLFit program (ID Business Solutions Ltd., Guildford, Surrey, UK).

In order of rising EC50:
1. CS(=O)(=O)c1ccc(Oc2ncnc3c2cnn3C2CCN(C(=O)OCC(Cl)(Cl)Cl)CC2)cc1 [Example 115, 4-[4-(4-Methanesulfonyl-phenoxy)-pyrazolo[3,4-d]pyrimidin-1-yl]-piperidine-1-carboxylic acid 2,2,2-trichloro-ethyl ester]  0.018 µM
2. CC(C)(C)OC(=O)N1CCC(n2ncc3c(Oc4ccc(S(C)(=O)=O)cc4)nc(Cl)nc32)CC1 [Example 172, 4-[6-Chloro-4-(4-methanesulfonyl-phenoxy)-pyrazolo[3,4-d]pyrimidin-1-yl]-piperidine-1-carboxylic acid tert-butyl ester]  0.024 µM
3. CC(C)OC(=O)N1CCC(n2ncc3c(Oc4ccc(S(C)(=O)=O)c(F)c4)ncnc32)CC1 [Example 24, 4-[4-(3-Fluoro-4-methanesulfonyl-phenoxy)-pyrazolo[3,4-d]pyrimidin-1-yl]-piperidine-1-carboxylic acid isopropyl ester]  0.098 µM
4. CC(C)(C)COC(=O)N1CCC(n2ncc3c(Oc4ccc(S(C)(=O)=O)cc4)ncnc32)CC1 [Example 108, 4-[4-(4-Methanesulfonyl-phenoxy)-pyrazolo[3,4-d]pyrimidin-1-yl]-piperidine-1-carboxylic acid 2,2-dimethyl-propyl ester]  0.1 µM
5. CS(=O)(=O)c1ccc(Oc2ncnc3c2cnn3C2CCN(C(=O)OCC(F)(F)F)CC2)cc1 [Example 113, 4-[4-(4-Methanesulfonyl-phenoxy)-pyrazolo[3,4-d]pyrimidin-1-yl]-piperidine-1-carboxylic acid 2,2,2-trifluoro-ethyl ester]  0.16 µM
6. CC(C)(C)OC(=O)N1CCC(n2ncc3c(Oc4ccc5c(c4)OCO5)ncnc32)CC1 [Example 41, 4-[4-(Benzo[1,3]dioxol-5-yloxy)-pyrazolo[3,4-d]pyrimidin-1-yl]-piperidine-1-carboxylic acid tert-butyl ester]  0.29 µM
7. Cc1cc(C(=O)N2CCC(n3ncc4c(Oc5ccc(S(C)(=O)=O)cc5)ncnc43)CC2)nn1C [Example 152, (1,5-Dimethyl-1H-pyrazol-3-yl)-{4-[4-(4-methanesulfonyl-phenoxy)-pyrazolo[3,4-d]pyrimidin-1-yl]-piperidin-1-yl}-methanone]  0.39 µM
8. CC(C)(C)OC(=O)N1CCC(n2ncc3c(N4CCc5cc(S(C)(=O)=O)ccc54)ncnc32)CC1 [Example 10, 4-[4-(5-Methanesulfonyl-2,3-dihydro-indol-1-yl)-pyrazolo[3,4-d]pyrimidin-1-yl]-piperidine-1-carboxylic acid tert-butyl ester]  0.46 µM
9. CC(C)(C)OC(=O)N1CCC(n2ncc3c(Oc4ccc(C#N)cc4)ncnc32)CC1 [Example 46, 4-[4-(4-Cyano-phenoxy)-pyrazolo[3,4-d]pyrimidin-1-yl]-piperidine-1-carboxylic acid tert-butyl ester]  0.48 µM
10. Cc1cc(Oc2ncnc3c2cnn3C2CCN(C(=O)OC(C)(C)C)CC2)ccc1NS(C)(=O)=O [Example 68, 4-[4-(4-Methanesulfonylamino-3-methyl-phenoxy)-pyrazolo[3,4-d]pyrimidin-1-yl]-piperidine-1-carboxylic acid tert-butyl ester]  0.73 µM
11. Cc1ncccc1Oc1ncnc2c1cnn2C1CCN(C(=O)Oc2ccccc2)CC1 [Example 122, 4-[4-(2-Methyl-pyridin-3-yloxy)-pyrazolo[3,4-d]pyrimidin-1-yl]-piperidine-1-carboxylic acid phenyl ester]  1.1 µM
12. CC(C)(C)OC(=O)N1CCC(n2ncc3c(Oc4cccnc4)ncnc32)CC1 [Example 91, 4-[4-(Pyridin-3-yloxy)-pyrazolo[3,4-d]pyrimidin-1-yl]-piperidine-1-carboxylic acid tert-butyl ester]  1.2 µM
13. CS(=O)(=O)c1ccc(Oc2ncnc3c2cnn3C2CCN(Cc3nccs3)CC2)cc1 [Example 169, 4-(4-Methanesulfonyl-phenoxy)-(1-thiazol-2-ylmethyl-piperidin-4-yl)-1H-pyrazolo[3,4-d]pyrimidine]  3.6 µM

— US8188098B2, “GPR119 receptor agonists” (Hoffmann-La Roche Inc., priority 2008, dated 2012)
